Converted amounts (≈) assume the structure as drawn.
Experiments:
Type in all cases: functional
Staphylococcus aureus [1] = assay: Antibacterial activity against […] Staphylococcus aureus ATCC 25923 after 20 to 24 hrs by two-fold microdilution method
Staphylococcus aureus [2] = assay: Antibacterial activity against methicillin-resistant Staphylococcus aureus ATCC 43300 after 20 to 24 hrs by two-fold microdilution method
[3] = test system: Staphylococcus haemolyticus; assay: Antibacterial activity against Staphylococcus haemolyticus CICC 10373 after 20 to 24 hrs by two-fold microdilution method
Streptococcus pneumoniae = assay: Antibacterial activity against Streptococcus pneumoniae ATCC 6305 after 20 to 24 hrs by two-fold microdilution method
[4] = test system: Staphylococcus epidermidis; assay: Antibacterial activity against Staphylococcus epidermidis ATCC 12228 after 20 to 24 hrs by two-fold microdilution method
Staphylococcus aureus [5] = assay: Antibacterial activity against methicillin-resistant Staphylococcus aureus 122045 clinical isolate after 20 to 24 hrs by two-fold microdilution method
Staphylococcus aureus [6] = assay: Antibacterial activity against methicillin-resistant Staphylococcus aureus 305026 clinical isolate after 20 to 24 hrs by two-fold microdilution method
Staphylococcus aureus [7] = assay: Antibacterial activity against methicillin-resistant Staphylococcus aureus 216054 clinical isolate after 20 to 24 hrs by two-fold microdilution method
Staphylococcus aureus [8] = assay: Antibacterial activity against methicillin-resistant Staphylococcus aureus 103054 clinical isolate after 20 to 24 hrs by two-fold microdilution method
Staphylococcus aureus [9] = assay: Antibacterial activity against methicillin-resistant Staphylococcus aureus 1029025 clinical isolate after 20 to 24 hrs by two-fold microdilution method
Staphylococcus aureus [10] = assay: Antibacterial activity against methicillin-resistant Staphylococcus aureus 110910-2 clinical isolate after 20 to 24 hrs by two-fold microdilution method
Staphylococcus aureus [11] = assay: Antibacterial activity against methicillin-resistant Staphylococcus aureus 110432 clinical isolate after 20 to 24 hrs by two-fold microdilution method
Staphylococcus aureus [12] = assay: Antibacterial activity against methicillin-resistant Staphylococcus aureus GLH15 clinical isolate after 20 to 24 hrs by two-fold microdilution method
Staphylococcus aureus [13] = assay: Antibacterial activity against methicillin-resistant Staphylococcus aureus 121969 clinical isolate after 20 to 24 hrs by two-fold microdilution method
Staphylococcus aureus [14] = assay: Antibacterial activity against methicillin-resistant Staphylococcus aureus 122710-2 clinical isolate after 20 to 24 hrs by two-fold microdilution method
Staphylococcus aureus [15] = assay: Antibacterial activity against methicillin-resistant Staphylococcus aureus 122820-2 clinical isolate after 20 to 24 hrs by two-fold microdilution method
Staphylococcus aureus [16] = assay: Antibacterial activity against methicillin-resistant Staphylococcus aureus 11819 clinical isolate after 20 to 24 hrs by two-fold microdilution method
Staphylococcus aureus [17] = assay: Antibacterial activity against methicillin-resistant Staphylococcus aureus 11703 clinical isolate after 20 to 24 hrs by two-fold microdilution method
Staphylococcus aureus [18] = assay: Antibacterial activity against methicillin-resistant Staphylococcus aureus 12308 clinical isolate after 20 to 24 hrs by two-fold microdilution method
Staphylococcus aureus [19] = assay: Antibacterial activity against methicillin-resistant Staphylococcus aureus 221014 clinical isolate after 20 to 24 hrs by two-fold microdilution method
Staphylococcus aureus [20] = assay: Antibacterial activity against methicillin-resistant Staphylococcus aureus 30116-1 clinical isolate after 20 to 24 hrs by two-fold microdilution method
Staphylococcus aureus [21] = assay: Antibacterial activity against methicillin-resistant Staphylococcus aureus 3250299 clinical isolate after 20 to 24 hrs by two-fold microdilution method
Staphylococcus aureus [22] = assay: Antibacterial activity against methicillin-resistant Staphylococcus aureus 504008 clinical isolate after 20 to 24 hrs by two-fold microdilution method
Staphylococcus aureus [23] = assay: Antibacterial activity against methicillin-resistant Staphylococcus aureus 625032 clinical isolate after 20 to 24 hrs by two-fold microdilution method
Staphylococcus aureus [24] = assay: Antibacterial activity against methicillin-resistant Staphylococcus aureus 519028 clinical isolate after 20 to 24 hrs by two-fold microdilution method
Staphylococcus aureus [25] = assay: Antibacterial activity against methicillin-resistant Staphylococcus aureus 614019 clinical isolate after 20 to 24 hrs by two-fold microdilution method
Staphylococcus aureus [26] = assay: Antibacterial activity against methicillin-resistant Staphylococcus aureus 921026 clinical isolate after 20 to 24 hrs by two-fold microdilution method
Staphylococcus aureus [27] = assay: Antibacterial activity against methicillin-resistant Staphylococcus aureus 814039 clinical isolate after 20 to 24 hrs by two-fold microdilution method
Staphylococcus aureus [28] = assay: Antibacterial activity against methicillin-resistant Staphylococcus aureus 822030 clinical isolate after 20 to 24 hrs by two-fold microdilution method
Staphylococcus aureus [29] = assay: Antibacterial activity against methicillin-resistant Staphylococcus aureus 829034 clinical isolate after 20 to 24 hrs by two-fold microdilution method
Staphylococcus aureus [30] = assay: Antibacterial activity against methicillin-resistant Staphylococcus aureus 831024 clinical isolate after 20 to 24 hrs by two-fold microdilution method
Staphylococcus aureus [31] = assay: Antibacterial activity against methicillin-resistant Staphylococcus aureus 919205 clinical isolate after 20 to 24 hrs by two-fold microdilution method
Staphylococcus aureus [32] = assay: Antibacterial activity against methicillin-resistant Staphylococcus aureus 1019240 clinical isolate after 20 to 24 hrs by two-fold microdilution method
Staphylococcus aureus [33] = assay: Antibacterial activity against methicillin-resistant Staphylococcus aureus 1023043 clinical isolate after 20 to 24 hrs by two-fold microdilution method
Staphylococcus aureus [34] = assay: Antibacterial activity against methicillin-resistant Staphylococcus aureus 1026021 clinical isolate after 20 to 24 hrs by two-fold microdilution method
Staphylococcus aureus [35] = assay: Antibacterial activity against methicillin-resistant Staphylococcus aureus 1024004-2 clinical isolate after 20 to 24 hrs by two-fold microdilution method
Staphylococcus aureus [36] = assay: Antibacterial activity against methicillin-resistant Staphylococcus aureus 1026211 clinical isolate after 20 to 24 hrs by two-fold microdilution method
Staphylococcus aureus [37] = assay: Antibacterial activity against methicillin-resistant Staphylococcus aureus 1101016 clinical isolate after 20 to 24 hrs by two-fold microdilution method
Staphylococcus aureus [38] = assay: Antibacterial activity against methicillin-resistant Staphylococcus aureus 1107027 clinical isolate after 20 to 24 hrs by two-fold microdilution method
Staphylococcus aureus [39] = assay: Antibacterial activity against methicillin-resistant Staphylococcus aureus 1108204 clinical isolate after 20 to 24 hrs by two-fold microdilution method
Staphylococcus aureus [40] = assay: Antibacterial activity against methicillin-resistant Staphylococcus aureus 1111047-1 clinical isolate after 20 to 24 hrs by two-fold microdilution method
Staphylococcus aureus [41] = assay: Antibacterial activity against methicillin-resistant Staphylococcus aureus 1128040 clinical isolate after 20 to 24 hrs by two-fold microdilution method
Staphylococcus aureus [42] = assay: Antibacterial activity against methicillin-resistant Staphylococcus aureus 10844 clinical isolate after 20 to 24 hrs by two-fold microdilution method
Staphylococcus aureus [43] = assay: Antibacterial activity against methicillin-resistant Staphylococcus aureus 112047 clinical isolate after 20 to 24 hrs by two-fold microdilution method
Staphylococcus aureus [44] = assay: Antibacterial activity against methicillin-resistant Staphylococcus aureus 118038 clinical isolate after 20 to 24 hrs by two-fold microdilution method
Staphylococcus aureus [45] = assay: Antibacterial activity against methicillin-resistant Staphylococcus aureus 121026 clinical isolate after 20 to 24 hrs by two-fold microdilution method
Staphylococcus aureus [46] = assay: Antibacterial activity against methicillin-resistant Staphylococcus aureus 125025 clinical isolate after 20 to 24 hrs by two-fold microdilution method

**Q.** What does the source list for `O=C1c2cccnc2C(=O)c2c1c(C(=O)OCCCCN1CCOCC1)c1ccc(Br)cn21`?
**A.** MIC (Staphylococcus aureus [1]): 0.063 µg/mL (≈ 0.123 µM); MIC (Staphylococcus aureus [2]): 0.063 µg/mL (≈ 0.123 µM); MIC [3]: 0.125 µg/mL (≈ 0.244 µM); MIC (Streptococcus pneumoniae): 4 µg/mL (≈ 7.81 µM); MIC [4]: ≤ 0.0078 µg/mL; MIC (Staphylococcus aureus [5]): 0.125 µg/mL (≈ 0.244 µM); MIC (Staphylococcus aureus [6]): 0.125 µg/mL (≈ 0.244 µM); MIC (Staphylococcus aureus [7]): 0.063 µg/mL (≈ 0.123 µM); MIC (Staphylococcus aureus [8]): 0.5 µg/mL (≈ 0.976 µM); MIC (Staphylococcus aureus [9]): 0.5 µg/mL (≈ 0.976 µM); MIC (Staphylococcus aureus [10]): 0.5 µg/mL (≈ 0.976 µM); MIC (Staphylococcus aureus [11]): 0.25 µg/mL (≈ 0.488 µM); MIC (Staphylococcus aureus [12]): 0.25 µg/mL (≈ 0.488 µM); MIC (Staphylococcus aureus [13]): 1 µg/mL (≈ 1.95 µM); MIC (Staphylococcus aureus [14]): 0.25 µg/mL (≈ 0.488 µM); MIC (Staphylococcus aureus [15]): 0.125 µg/mL (≈ 0.244 µM); MIC (Staphylococcus aureus [16]): 0.125 µg/mL (≈ 0.244 µM); MIC (Staphylococcus aureus [17]): 0.5 µg/mL (≈ 0.976 µM); MIC (Staphylococcus aureus [18]): 0.25 µg/mL (≈ 0.488 µM); MIC (Staphylococcus aureus [19]): 1 µg/mL (≈ 1.95 µM); MIC (Staphylococcus aureus [20]): 0.5 µg/mL (≈ 0.976 µM); MIC (Staphylococcus aureus [21]): 0.5 µg/mL (≈ 0.976 µM); MIC (Staphylococcus aureus [22]): 0.25 µg/mL (≈ 0.488 µM); MIC (Staphylococcus aureus [23]): 0.5 µg/mL (≈ 0.976 µM); MIC (Staphylococcus aureus [24]): 0.5 µg/mL (≈ 0.976 µM); MIC (Staphylococcus aureus [25]): 0.5 µg/mL (≈ 0.976 µM); MIC (Staphylococcus aureus [26]): 0.5 µg/mL (≈ 0.976 µM); MIC (Staphylococcus aureus [27]): 0.25 µg/mL (≈ 0.488 µM); MIC (Staphylococcus aureus [28]): 0.5 µg/mL (≈ 0.976 µM); MIC (Staphylococcus aureus [29]): 0.5 µg/mL (≈ 0.976 µM); MIC (Staphylococcus aureus [30]): 0.5 µg/mL (≈ 0.976 µM); MIC (Staphylococcus aureus [31]): 1 µg/mL (≈ 1.95 µM); MIC (Staphylococcus aureus [32]): 1 µg/mL (≈ 1.95 µM); MIC (Staphylococcus aureus [33]): 0.25 µg/mL (≈ 0.488 µM); MIC (Staphylococcus aureus [34]): 16 µg/mL (≈ 31.2 µM); MIC (Staphylococcus aureus [35]): 0.5 µg/mL (≈ 0.976 µM); MIC (Staphylococcus aureus [36]): 0.063 µg/mL (≈ 0.123 µM); MIC (Staphylococcus aureus [37]): 0.25 µg/mL (≈ 0.488 µM); MIC (Staphylococcus aureus [38]): 0.25 µg/mL (≈ 0.488 µM); MIC (Staphylococcus aureus [39]): 0.5 µg/mL (≈ 0.976 µM); MIC (Staphylococcus aureus [40]): 1 µg/mL (≈ 1.95 µM); MIC (Staphylococcus aureus [41]): 0.25 µg/mL (≈ 0.488 µM); MIC (Staphylococcus aureus [42]): 0.5 µg/mL (≈ 0.976 µM); MIC (Staphylococcus aureus [43]): 0.25 µg/mL (≈ 0.488 µM); MIC (Staphylococcus aureus [44]): 0.5 µg/mL (≈ 0.976 µM); MIC (Staphylococcus aureus [45]): 0.25 µg/mL (≈ 0.488 µM); MIC (Staphylococcus aureus [46]): 0.25 µg/mL (≈ 0.488 µM)
